Results published in patent US7105553B2, “Thiazolyl amide derivatives” (Bayer Aktiengesellschaft, priority 1999, dated 2006).
Like-named read-outs stand apart in the source and are kept apart here.

Key:
[1] = test system: HSV-2 G; assay: anti-HSV screening test (cytopathogenic effect, fluorescein diacetate read-out), HSV-2 G on Vero cells; type: cell-based; details: read-out: IC50 HSV-2 G/Vero
Procedure: (§1) HSV (HSV-1 Walki, HSV-1F or HSV-2G) was cultivated on Vero cells (ATCC CCL-81) under the following conditions: The cells were grown in M199 medium (5% foetal calf serum, 2 mM glutamine, 100 IU/ml penicillin, 100 μg/ml streptomycin) in cell culture bottles at 37° C. and 5% CO2. The cells were splitted twice per week, in each case 1:4. For the infection, the medium was removed, the cells were washed with Hank's solution, detached using 0.05% trypsin, 0.02% EDTA (Seromed L2143) and incubated at a density of 4×10^5 cells per ml under the abovementioned conditions for 24 hours. The medium was then removed and the virus solution was added at an m.o.i of <0.05 in a volume of 2 ml per 175 cm^2 of surface. The medium was incubated under the conditions mentioned for one hour and then made up to a volume of 50 ml per 175 cm^2 bottle. […] The virus was released by freezing (−80° C.) and thawing (37° C.) the cultures twice. Cell debris was removed by centrifugation (300 g, 10 min, 4° C.) and the supernatant was frozen down in aliquots at −80° C.
(§2) The anti-HSV action was determined in a screening test system in 96-well microtitre plates using various cell lines of neuronal, lymphoid and epithelial origin, such as, for example, Vero (kidney cell line of the green monkey), MEF (murine embryonal fibroblasts), HELF (humane embryonal fibroblasts), NT2 (humane neuronal cell line) or Jurkat (humane lymphoid T-cell line).
(§3) The substances (50 mM), dissolved in DMSO (dimethyl sulphoxide), are examined on microtitre plates (for example 96-well MTP) in final concentrations of 250-0.5 μM (micromolar) in two replications (4 substances/plate). In the case of potent substances, the dilutions are continued for several plates up to 0.5 pM (picomolar). Also examined are toxic and cytostatic effects of the substances. After an appropriate dilution of the substances (1:2) on the microtitre plate in medium, a suspension of cells (1×10^4 cells per well) such as, for example, of Vero cells in M199 (medium 199) with 5% foetal calf serum, 2 mM glutamine and optionally 100 IU/ml penicillin and 100 μg/ml streptomycin or of MEF cells in EMEM (Eagle's Minimum Essential Medium) with 10% foetal calf serum, 2 mM glutamine and optionally 100 IU/ml penicillin and 100 μg/ml streptomycin, or of HELF cells in EMEM with 10% foetal calf serum, 2 mM glutamine and optionally 100 IU/ml penicillin and 100 μg/ml streptomycin, or of NT2- and Jurkat cells in DMEM ([…] glucose plus pyridoxin) with 10% foetal calf serum, 2 mM glutamine, 1 mM sodium pyruvate, non-essential amino acids and optionally 100 IU/ml penicillin and 100 μg/ml streptomycin is added to each well and the cells in the relevant wells are infected with an appropriate amount of virus (HSV-1 F or HSV-2 G having an m.o.i (multiplicity of infection) of 0.0025 for HELF, Vero and MEF cells and an m.o.i of 0.1 for NT2 and Jurkat cells). The plates are then incubated at 37° C. in a CO2 incubator (5% CO2) for several days. […] The plates are initially evaluated visually using a microscope and then analysed using a fluorescent dye. To this end, the cell supernatant of all wells of the MTP is aspirated and the wells are filled with 200 μl of PBS wash solution. The PBS is then aspirated and all the wells are filled with 200 μl of fluorescent dye solution (fluorescein diacetate, 10 μg/ml in PBS). After an incubation time of 30-90 min, the test plates are read in a fluorescence detector at an excitation wavelength of 485 nm and an emission wavelength of 538 nm.

[2] = test system: HSV-1 F; assay: anti-HSV screening test (cytopathogenic effect, fluorescein diacetate read-out), HSV-1 F on Vero cells; type: cell-based; details: read-out: IC50 HSV-1 F/Vero
Procedure: as §1, §2, §3

[3] = test system: HSV-2; assay: in-vivo action: survival of intranasally HSV-infected mice; design: species or system mice (BALB/cABom); details: Human alphaherpesvirus 2; HSV-2, intranasal infection 5×10^4 Pfu, treatment 3 times per day for 5 days from 6 hours after infection; read-out: ED50 (50% of the animals survive at this dose)
Procedure: 6 week-old female mice, BALB/cABom strain were obtained from a commercial breeder (Bomholtgard Breeding and Research Centre Ltd.).
The animals were anaesthetized with diethyl ether (Merck) in a sealed glass vessel. 50 μl of a dilution of the virus stock (infection dose 5×10^4 Pfu) were introduced into the nose of the anaesthetized animals using an Eppendorf pipette. In 90-100% of the animals, this infection dose causes death by a generalized infection with prominent respiratory and central-nervous symptoms on average after 5 to 8 days.
6 hours after the infection, the animals were treated with doses of 0.1-100 mg/kg of body mass, 3 times per day, at 7 a.m., 2 p.m. and 7 p.m., for a period of 5 days. The substances were pre-dissolved in DMSO and resuspended in tylose/PBS (Hoechst) (final concentration 1.5% DMSO, 0.5% tylose in PBS).
After the last administration, the animals were monitored further and the time of death was determined.

[4] = Human alphaherpesvirus 2, Vero cells infected with HSV-2 G, m.o.i. 0.0025, half-maximal fluorescence intensity vs non-infected cell control
[5] = Human alphaherpesvirus 1, Vero cells infected with HSV-1 F, m.o.i. 0.0025, half-maximal fluorescence intensity vs non-infected cell control

SMILES	melting point	other results
CCOc1ccc(CC(=O)N(C)c2nc(C)c(S(=O)(=O)N(C)C)s2)cc1 [Example 14]	154 °C	IC50 [1, 4]: 0.75 µM; IC50 [2, 5]: 0.1 µM
Cc1nc(N(C)C(=O)Cc2ccc(-c3ccccc3F)cc2)sc1S(N)(=O)=O [Example 57, N-[5-(Aminosulphonyl)-4-methyl-1,3-thiazol-2-yl]-2-(2′-fluoro[1,1′-biphenyl]-4-yl)-N-methylacetamide]	–	IC50 ([1]; Human alphaherpesvirus 2, Vero): < 0.01 µM; ED50 [3]: ~0.7 mg/kg; IC50 ([2]; Human alphaherpesvirus 1, Vero): < 0.01 µM
CNS(=O)(=O)c1sc(N(CCN2CCCC2=O)C(=O)Cc2ccc(-c3ccccc3)cc2)nc1C [Example 23]	156 °C	IC50 [1, 4]: 0.1 µM; IC50 [2, 5]: 0.03 µM
Cc1nc(N(C)C(=O)Cc2ccc(-n3cccn3)cc2)sc1S(N)(=O)=O [Example 126, N-[5-(Aminosulphonyl)-4-methyl-1,3-thiazol-2-yl]-N-methyl-2-[4-(1H-pyrazol-1-yl)phenyl]acetamide]	–	IC50 [1, 4]: 0.1 µM; IC50 [2, 5]: 0.01 µM
CNS(=O)(=O)c1sc(N(Cc2cccnc2)C(=O)Cc2ccc(-c3ccccc3)cc2)nc1C	161 °C	–
Cc1nc(N(C)C(=O)Cc2ccc(-c3ccccn3)cc2)sc1S(=O)(=O)NCCO[Si](C)(C)C(C)(C)C	130 °C	–
Cc1nc(N(C)C(=O)Cc2ccc(-c3ncccc3N)cc2)sc1S(N)(=O)=O.Cl	264 °C	–
CNS(=O)(=O)c1sc(N(C)C(=O)Cc2ccc(-c3cncc(C#N)c3)cc2)nc1C	130 °C	–
Cc1nc(N(C)C(=O)Cc2ccc(-c3ccccc3)cc2)sc1S(=O)(=O)NCC(F)(F)F	216 °C	–
CNS(=O)(=O)c1sc(N(CCCN2CCCC2=O)C(=O)Cc2ccc(-c3ccccc3)cc2)nc1C	158 °C	–
Cc1nc(N(C)C(=O)Cc2ccc(-c3cc(F)ccc3F)cc2)sc1S(N)(=O)=O [Example 87, N-[5-(aminosulphonyl)-4-methyl-1,3-thiazol-2-yl]-2-(2′,5′-difluoro-1,1′-biphenyl-4-yl)-N-methylacetamide]	–	IC50 [1, 4]: < 0.01 µM; IC50 [2, 5]: < 0.01 µM
Cc1nc(N(C)C(=O)Cc2ccc(-c3cnccn3)cc2)sc1S(N)(=O)=O	217 °C	–
C=CCN(C(=O)Cc1ccc(-c2ccccc2)cc1)c1nc(C)c(S(N)(=O)=O)s1	117 °C	–
CCCN(C(=O)Cc1ccc(-c2ccccc2)cc1)c1nc(C)c(S(=O)(=O)NCC(F)(F)F)s1	108 °C	–
CNS(=O)(=O)c1sc(N(C)C(=O)Cc2ccc(-c3cc(F)ccc3C)cc2)nc1C [Example 8]	186 °C	IC50 [1, 4]: 0.1 µM; IC50 [2, 5]: 0.1 µM
CCOc1ccc(CC(=O)N(C)c2nc(C)c(S(=O)(=O)NC)s2)cc1	157 °C	–
COCCCNS(=O)(=O)c1sc(N(C)C(=O)Cc2ccc(-c3ccccc3)cc2)nc1C	142 to 143 °C	–
Cc1nc(N(C)C(=O)Cc2ccc(-c3cccc(F)c3F)cc2)sc1S(N)(=O)=O	202 °C	–
Cc1nc(N(C)C(=O)Cc2ccc(-c3ccccn3)cc2)sc1S(N)(=O)=O [Example 38, N-[5-(Aminosulphonyl)-4-methyl-1,3-thiazol-2-yl]-N-methyl-2-[4-(2-pyridinyl)phenyl]acetamide]	–	IC50 [1, 4]: 0.016 µM; IC50 [2, 5]: 0.05 µM
CCN(C(=O)Cc1ccc(-c2ccccc2)cc1)c1nc(C)c(S(=O)(=O)NCC(F)(F)F)s1	152 °C	–
Cc1nc(N(C)C(=O)Cc2ccc(-c3cccnc3)cc2)sc1S(N)(=O)=O	208 °C	–
